Results on 17 compounds are retold here after patent US11180504B2 (ORCHID PHARMA LTD., priority 2016, dated 2021).

Converted amounts (≈) assume the structure as drawn. Like-named read-outs stand apart in the source and are kept apart here.

For assay [1], the system named is carbapenem sensitive Escherichia coli. Description: MIC by broth micro-dilution (CLSI), carbapenem sensitive E. coli. It counts as cell-based. (In broth dilution the organism is exposed to a series of concentrations in liquid medium.)
Assay [2] has as its system carbapenemase producing K. pneumoniae. Description: MIC by broth micro-dilution (CLSI), carbapenemase producing K. pneumoniae. It counts as cell-based, Klebsiella pneumoniae.
For assay [3], the system named is carbapenem sensitive Pseudomonas aeruginosa. Description: MIC by broth micro-dilution (CLSI), carbapenem sensitive P. aeruginosa. It counts as cell-based.
Assay [4] relates to methicillin-sensitive Staphylococcus aureus. Kind of assay: MIC by broth micro-dilution (CLSI), methicillin-sensitive S. aureus. It counts as cell-based. The note with it: MSSA S. aureus ATCC29213.
The mark [5] stands for this setting: Escherichia coli, ATCC25922, ESBL −ve E. coli ATCC25922, read-out: MIC.
The mark [6] stands for this setting: Klebsiella pneumoniae, ATCCBAA1705, KPC-2 K. pneumoniae ATCC BAA-1705, read-out: MIC.
[7] abbreviates: Pseudomonas aeruginosa, ATCC27853, Meropenem susceptible P. aeruginosa ATCC27853, read-out: MIC.
The mark [8] stands for this setting: Staphylococcus aureus, ATCC 29213 / MSSA, read-out: MIC.
Where [9] appears, read: Meropenem susceptible P. aeruginosa ATCC27853.

Broadly, the MIC is the lowest concentration that inhibits growth of the organism. Take `C[C@@H](NC(=O)CSC(F)F)[C@H]1C(=O)N2C(C(=O)O)=C(S[C@@H]3CN[C@H](C(=O)N4CC[C@@H](N)C4)C3)[C@H](C)[C@H]12` [Example 507, (4R,5S,6R)-3-((3S,5S)-5-((R)-3-aminopyrrolidine-1-carbonyl)pyrrolidin-3-ylthio)-6-((R)-1-(2-(difluoromethylthio)acetamido)ethyl)-4-methyl-7-oxo-1-azabicyclo[3.2.0]hept-2-ene-2-carboxylic acid]: the MIC in assay [1] (setting [5]) is 1 µg/mL (≈ 1.83 µM); in assay [2] (setting [6]), 8 µg/mL (≈ 14.6 µM); in assay [3] (setting [7]), 64 µg/mL (≈ 117 µM); in assay [4] (setting [8]) it was 2 µg/mL (≈ 3.65 µM).

In the case of `C[C@@H](NC(=O)Cn1cnnn1)[C@H]1C(=O)N2C(C(=O)O)=C(S[C@@H]3CN[C@H](C(=O)N4CCC(CNCCN)CC4)C3)[C@H](C)[C@H]12` [Example 443, (4R,5S,6R)-6-((R)-1-(2-(1H-tetrazol-1-yl)acetamido)ethyl)-3-((3S,5S)-5-(4-((2-aminoethylamino)methyl)piperidine-1-carbonyl)pyrrolidin-3-ylthio)-4-methyl-7-oxo-1-azabicyclo[3.2.0]hept-2-ene-2-carboxylic acid], the MIC was 0.5 µg/mL (≈ 0.827 µM) in assay [1] (setting [5]), 2 µg/mL (≈ 3.31 µM) in assay [2] (setting [6]), 1 µg/mL (≈ 1.65 µM) in assay [3] (setting [7]) and 4 µg/mL (≈ 6.61 µM) in assay [4] (setting [8]).

Turning to `C[C@@H](NC(=O)Cn1cnnn1)[C@H]1C(=O)N2C(C(=O)O)=C(S[C@@H]3CN[C@H](C(=O)N4CC5CNC5C4)C3)[C@H](C)[C@H]12` (stereo partly drawn) [Example 591, (4R,5S,6R)-6-((R)-1-(2-(1H-tetrazol-1-yl)acetamido)ethyl)-3-((3S,5S)-5-(3,6-diazabicyclo[3.2.0]heptane-3-carbonyl)pyrrolidin-3-ylthio)-4-methyl-7-oxo-1-azabicyclo[3.2.0]hept-2-ene-2-carboxylic acid], the MIC in assay [1] (ESBL −ve E. coli ATCC25922) is 0.25 µg/mL (≈ 0.458 µM); in assay [2] (KPC-2 K. pneumoniae ATCC BAA-1705) it was 1 µg/mL (≈ 1.83 µM); in assay [3] (setting [9]), 1 µg/mL (≈ 1.83 µM); in assay [4] it was 2 µg/mL (≈ 3.67 µM).

Take `C[C@@H](NC(=O)Cn1cnnn1)[C@H]1C(=O)N2C(C(=O)O)=C(S[C@@H]3CN[C@H](C(=O)N4CC5CCNC5(CO)C4)C3)[C@H](C)[C@H]12` (single isomer, unassigned) [Example 555]: the MIC came out at 0.25 µg/mL (≈ 0.424 µM) in assay [1] (setting [5]), 1 µg/mL (≈ 1.7 µM) in assay [2] (setting [6]), 2 µg/mL (≈ 3.39 µM) in assay [3] (setting [7]) and 4 µg/mL (≈ 6.78 µM) in assay [4] (setting [8]).

Consider `COCCNCC(=O)N[C@H](C)[C@H]1C(=O)N2C(C(=O)O)=C(S[C@@H]3CN[C@H](C(=O)N(C)C)C3)[C@H](C)[C@H]12` [Example 518, (4R,5S,6R)-3-((3S,5S)-5-(dimethylcarbamoyl)pyrrolidin-3-ylthio)-6-((R)-1-(2-(2-methoxyethylamino)acetamido)ethyl)-4-methyl-7-oxo-1-azabicyclo[3.2.0]hept-2-ene-2-carboxylic acid], for which the MIC in assay [1] (setting [5]) was 1 µg/mL (≈ 2.01 µM); in assay [2] (setting [6]) it was 4 µg/mL (≈ 8.04 µM); in assay [3] (setting [7]) it was 128 µg/mL (≈ 257 µM); in assay [4] (setting [8]), 8 µg/mL (≈ 16.1 µM).

`C[C@@H](NC(=O)Cn1cnnn1)[C@H]1C(=O)N2C(C(=O)O)=C(S[C@@H]3CN[C@H](C(=O)N4CCC5CN(C(=N)N)CCC54)C3)[C@H](C)[C@H]12` (single isomer, unassigned) [Example 559]: the minimum inhibitory concentration (MIC) came out at 0.25 µg/mL (≈ 0.406 µM) in assay [1] (setting [5]), 1 µg/mL (≈ 1.62 µM) in assay [2] (setting [6]), 4 µg/mL (≈ 6.5 µM) in assay [3] (setting [9]) and 1 µg/mL (≈ 1.62 µM) in assay [4] (setting [8]).

Turning to `CNCC(=O)N[C@H](C)[C@H]1C(=O)N2C(C(=O)O)=C(S[C@@H]3CN[C@H](C(=O)N4CC(C)(N)C4)C3)[C@H](C)[C@H]12` [Example 292], the MIC in assay [1] (setting [5]) stood at 4 µg/mL (≈ 8.09 µM); in assay [2] (setting [6]) it was 8 µg/mL (≈ 16.2 µM); in assay [3] (setting [7]), 16 µg/mL (≈ 32.3 µM); in assay [4] (setting [8]), 128 µg/mL (≈ 259 µM).

For `C[C@@H](NC(=O)C(F)F)[C@H]1C(=O)N2C(C(=O)O)=C(S[C@@H]3CN[C@H](C(=O)C4C[C@@H](N)C[C@H]4CF)C3)[C@H](C)[C@H]12` (some centres unmarked) [Example 251], the MIC in assay [1] (setting [5]) is 0.25 µg/mL (≈ 0.469 µM); in assay [2] (setting [6]), 0.5 µg/mL (≈ 0.939 µM); in assay [3] (setting [7]) it was 32 µg/mL (≈ 60.1 µM); in assay [4] (setting [8]), 0.5 µg/mL (≈ 0.939 µM).

`C[C@@H](NC(=O)Cn1cnnn1)[C@H]1C(=O)N2C(C(=O)O)=C(S[C@@H]3CN[C@H](C(=O)N4CCCNCC4)C3)[C@H](C)[C@H]12` [Example 516, (4R,5S,6R)-3-((3S,5S)-5-(1,4-diazepane-1-carbonyl)pyrrolidin-3-ylthio)-6-((R)-1-(2-(1H-tetrazol-1-yl)acetamido)ethyl)-4-methyl-7-oxo-1-azabicyclo[3.2.0]hept-2-ene-2-carboxylic acid]: the MIC was 0.25 µg/mL (≈ 0.457 µM) in assay [1] (setting [5]), 2 µg/mL (≈ 3.65 µM) in assay [2] (setting [6]), 2 µg/mL (≈ 3.65 µM) in assay [3] (setting [7]) and 2 µg/mL (≈ 3.65 µM) in assay [4] (setting [8]).

On to `C[C@@H](NC(=O)Cn1cnnn1)[C@H]1C(=O)N2C(C(=O)O)=C(S[C@@H]3CN[C@H](C(=O)N4CC5C[C@@H](NC(=N)N)C[C@]5(CO)C4)C3)[C@H](C)[C@H]12` (stereo partly drawn) [Example 585, (4R,5S,6R)-6-((R)-1-(2-(1H-tetrazol-1-yl)acetamido)ethyl)-3-((3S,5S)-5-((3aR,5R)-5-guanidino-3a-(hydroxymethyl)octahydrocyclopenta[c]pyrrole-2-carbonyl)pyrrolidin-3-ylthio)-4-methyl-7-oxo-1-azabicyclo[3.2.0]hept-2-ene-2-carboxylic acid], for which the MIC in assay [1] (setting [5]) came to 0.125 µg/mL (≈ 0.194 µM); in assay [2] (setting [6]), 1 µg/mL (≈ 1.55 µM); in assay [3] (setting [7]), 4 µg/mL (≈ 6.19 µM); in assay [4] (setting [8]), 2 µg/mL (≈ 3.1 µM).

Take `C[C@@H](NC(=O)C(F)F)[C@H]1C(=O)N2C(C(=O)O)=C(SC3CN(C4=NCCS4)C3)[C@H](C)[C@H]12` [Example 263]: the MIC in assay [1] (setting [5]) worked out at 0.25 µg/mL (≈ 0.543 µM); in assay [2] (setting [6]), 2 µg/mL (≈ 4.34 µM); in assay [3] (setting [7]) it was 128 µg/mL (≈ 278 µM); in assay [4] (setting [8]) it was 0.25 µg/mL (≈ 0.543 µM).

As to `C[C@@H](NC(=O)Cn1cnnn1)[C@H]1C(=O)N2C(C(=O)O)=C(S[C@@H]3CN[C@H](C(=O)N4CCN(CCO)CC4)C3)[C@H](C)[C@H]12` [Example 416, (4R,5S,6R)-6-((R)-1-(2-(1H-tetrazol-1-yl)acetamido)ethyl)-3-((3S,5S)-5-(4-(2-hydroxyethyl)piperazine-1-carbonyl)pyrrolidin-3-ylthio)-4-methyl-7-oxo-1-azabicyclo[3.2.0]hept-2-ene-2-carboxylic acid], the MIC in assay [1] (setting [5]) is 0.5 µg/mL (≈ 0.866 µM); in assay [2] (setting [6]) it was 2 µg/mL (≈ 3.46 µM); in assay [3] (setting [7]), 8 µg/mL (≈ 13.8 µM); in assay [4] (setting [8]), 4 µg/mL (≈ 6.92 µM).

`C[C@H]([C@H]1C(=O)N2C(C(=O)O)=C(S[C@@H]3CN[C@H](C(=O)N(C)C)C3)[C@H](C)[C@H]12)n1nnc(N)n1` [Example 326, (4R,5S,6S)-6-((R) - 1-(5-amino-2H-tetrazol-2-yl)ethyl)-3-((3S,5S)-5-(dimethylcarbamoyl)pyrrolidin-3-ylthio)-4-methyl-7-oxo-1-azabicyclo[3.2.0]hept-2-ene-2-carboxylic acid]: the MIC is 1 µg/mL (≈ 2.22 µM) in assay [1] (setting [5]), 16 µg/mL (≈ 35.5 µM) in assay [2] (setting [6]), 64 µg/mL (≈ 142 µM) in assay [3] (setting [7]) and 2 µg/mL (≈ 4.44 µM) in assay [4] (setting [8]).

Turning to `C[C@@H](NC(=O)Cn1cnnn1)[C@H]1C(=O)N2C(C(=O)O)=C(S[C@@H]3CN[C@H](C(=O)N4C[C@H](N)C[C@@H]4CO)C3)[C@H](C)[C@H]12` [Example 474, (4R,5S,6R)-6-((R)-1-(2-(1H-tetrazol-1-yl)acetamido)ethyl)-3-((3S,5S)-5-((2R,4R)-4-amino-2-(hydroxymethyl)pyrrolidine-1-carbonyl)pyrrolidin-3-ylthio)-4-methyl-7-oxo-1-azabicyclo[3.2.0]hept-2-ene-2-carboxylic acid], the MIC in assay [1] (setting [5]) turned out to be 0.25 µg/mL (≈ 0.444 µM); in assay [2] (setting [6]), 2 µg/mL (≈ 3.55 µM); in assay [3] (setting [7]) it was 2 µg/mL (≈ 3.55 µM); in assay [4] (setting [8]) it was 4 µg/mL (≈ 7.1 µM).

Take `C[C@@H]1C[C@H](N)CN1C(=O)[C@@H]1C[C@H](SC2=C(C(=O)O)N3C(=O)[C@H]([C@@H](C)NC(=O)Cn4cnnn4)[C@H]3[C@H]2C)CN1` [Example 411, (4R,5S,6R)-6-((R)-1-(2-(1H-tetrazol-1-yl)acetamido)ethyl)-3-((3S,5S)-5-((2R,4S)-4-amino-2-methylpyrrolidine-1-carbonyl)pyrrolidin-3-ylthio)-4-methyl-7-oxo-1-azabicyclo[3.2.0]hept-2-ene-2-carboxylic acid]: the MIC amounted to 0.25 µg/mL (≈ 0.457 µM) in assay [1] (setting [5]), 1 µg/mL (≈ 1.83 µM) in assay [2] (setting [6]), 1 µg/mL (≈ 1.83 µM) in assay [3] (setting [7]) and 2 µg/mL (≈ 3.65 µM) in assay [4] (setting [8]).

As to `C[C@@H](NC(=O)CC(N)=O)[C@H]1C(=O)N2C(C(=O)O)=C(S[C@@H]3CN[C@H](C(=O)N(C)C)C3)[C@H](C)[C@H]12` [Example 268], the MIC in assay [1] (setting [5]) amounted to 2 µg/mL (≈ 4.28 µM); in assay [2] (setting [6]), 4 µg/mL (≈ 8.56 µM); in assay [3] (setting [7]), 32 µg/mL (≈ 68.4 µM); in assay [4] (setting [8]) it was 8 µg/mL (≈ 17.1 µM).

`C[C@@H](NC(=O)Cn1cnnn1)[C@H]1C(=O)N2C(C(=O)O)=C(S[C@@H]3CN[C@H](C(=O)N4C[C@@H](NC(=N)N)C[C@H]4CO)C3)[C@H](C)[C@H]12` [Example 576, (4R,5S,6R)-6-((R)-1-(2-(1H-tetrazol-1-yl)acetamido)ethyl)-3-((3S,5S)-5-((2S,4S)-4-guanidino-2-(hydroxymethyl)-pyrrolidine-1-carbonyl)pyrrolidin-3-ylthio)-4-methyl-7-oxo-1-azabicyclo[3.2.0]hept-2-ene-2-carboxylic acid]: the MIC in assay [1] (setting [5]) turned out to be 0.125 µg/mL (≈ 0.206 µM); in assay [2] (setting [6]), 0.5 µg/mL (≈ 0.826 µM); in assay [3] (setting [7]), 0.25 µg/mL (≈ 0.413 µM); in assay [4] (setting [8]), 1 µg/mL (≈ 1.65 µM).
